pIC50, pKi: −log10 of the molar value.

One experiment has as its target T1, D(4) dopamine receptor (Homo sapiens, UniProt P21917).
T1 sequence (P21917 whole entry): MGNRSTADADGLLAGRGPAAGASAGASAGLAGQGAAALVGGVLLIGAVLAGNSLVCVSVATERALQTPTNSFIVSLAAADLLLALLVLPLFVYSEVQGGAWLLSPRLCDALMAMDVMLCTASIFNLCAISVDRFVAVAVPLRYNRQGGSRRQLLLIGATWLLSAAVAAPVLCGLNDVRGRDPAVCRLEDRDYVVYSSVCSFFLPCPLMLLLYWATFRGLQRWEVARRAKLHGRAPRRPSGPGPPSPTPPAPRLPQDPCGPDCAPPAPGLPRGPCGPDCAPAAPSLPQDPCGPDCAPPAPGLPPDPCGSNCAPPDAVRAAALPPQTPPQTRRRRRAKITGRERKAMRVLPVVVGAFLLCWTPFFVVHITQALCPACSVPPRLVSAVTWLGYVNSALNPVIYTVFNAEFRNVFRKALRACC
Kind of experiment: DRUGMATRIX: Dopamine D4.2 radioligand binding (ligand: [3H] Spiperone). Format: cell membranes, CHO-K1, Membrane. The conditions noted are these: Not Active = under 50% inhibition at 10 µM; for IC50: cho-k1.

Another experiment concerns the target Substance-P receptor (Homo sapiens, UniProt P25103). Format: cell membranes, Membrane. The conditions noted are these: cho. Also: in other assays of this panel Not Active means under 50% inhibition at 10 µM.
For the next experiment, the target named is Adenosine receptor A2a (Homo sapiens, UniProt P29274). The experiment can be described thus: DRUGMATRIX: Adenosine A2A radioligand binding (ligand: […]). Format: cell membranes, HEK293, Membrane. The conditions noted are these: Not Active = under 50% inhibition at 10 µM; for pIC50: read-out: IC50; for pKi: read-out: Ki; for IC50: hek293.
Chain of Adenosine receptor A2a (P29274 whole entry): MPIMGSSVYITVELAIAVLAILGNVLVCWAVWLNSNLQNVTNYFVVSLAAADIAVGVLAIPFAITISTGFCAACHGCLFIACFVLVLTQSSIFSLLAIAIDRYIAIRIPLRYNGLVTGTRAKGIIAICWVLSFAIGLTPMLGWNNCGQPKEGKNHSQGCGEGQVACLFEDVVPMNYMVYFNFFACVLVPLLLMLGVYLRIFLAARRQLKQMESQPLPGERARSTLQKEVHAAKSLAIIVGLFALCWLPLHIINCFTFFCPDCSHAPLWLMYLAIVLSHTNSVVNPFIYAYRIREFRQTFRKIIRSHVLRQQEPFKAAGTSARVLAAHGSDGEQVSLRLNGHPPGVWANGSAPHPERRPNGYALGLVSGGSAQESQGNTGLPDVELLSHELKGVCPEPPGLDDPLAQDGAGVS
The target of experiment [1] is T2, Polyunsaturated fatty acid lipoxygenase ALOX15 (Oryctolagus cuniculus, UniProt P12530).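 Also: inhibition of 15-lipoxygenase enzyme activity measured with linoleic acid as the substrate; in other assays of this panel Not Active means under 50% inhibition at 10 µM.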
T2 sequence (P12530 whole entry): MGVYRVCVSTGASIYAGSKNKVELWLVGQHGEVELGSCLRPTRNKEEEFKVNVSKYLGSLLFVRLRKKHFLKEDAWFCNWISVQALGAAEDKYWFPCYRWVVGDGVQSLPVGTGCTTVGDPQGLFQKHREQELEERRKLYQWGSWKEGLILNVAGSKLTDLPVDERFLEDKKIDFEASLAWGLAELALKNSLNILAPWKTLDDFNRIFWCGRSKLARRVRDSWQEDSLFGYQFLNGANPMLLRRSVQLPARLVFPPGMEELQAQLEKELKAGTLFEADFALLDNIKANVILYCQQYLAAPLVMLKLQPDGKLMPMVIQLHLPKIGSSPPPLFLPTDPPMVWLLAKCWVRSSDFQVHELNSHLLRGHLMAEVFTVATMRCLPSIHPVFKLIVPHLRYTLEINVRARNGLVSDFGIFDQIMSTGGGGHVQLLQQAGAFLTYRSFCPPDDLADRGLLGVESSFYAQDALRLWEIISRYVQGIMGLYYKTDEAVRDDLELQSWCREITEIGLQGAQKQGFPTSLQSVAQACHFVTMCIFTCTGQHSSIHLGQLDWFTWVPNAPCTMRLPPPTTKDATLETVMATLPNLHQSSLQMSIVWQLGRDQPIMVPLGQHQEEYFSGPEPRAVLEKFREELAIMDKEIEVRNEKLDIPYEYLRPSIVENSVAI
Kind of experiment: biochemical. Format: tissue-based, Reticulocytes. The conditions noted are these: reticulocytes.

In experiment [2] the target is Mitogen-activated protein kinase 14 (Homo sapiens, UniProt Q16539). Also noted: species or system Escherichia coli.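 Also: inhibition of p38alpha enzyme activity in a biochemical kinase assay, with myelin basic protein serving as substrate; in other assays of this panel Not Active means under 50% inhibition at 10 µM.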
Chain of Mitogen-activated protein kinase 14 (Q16539 whole entry): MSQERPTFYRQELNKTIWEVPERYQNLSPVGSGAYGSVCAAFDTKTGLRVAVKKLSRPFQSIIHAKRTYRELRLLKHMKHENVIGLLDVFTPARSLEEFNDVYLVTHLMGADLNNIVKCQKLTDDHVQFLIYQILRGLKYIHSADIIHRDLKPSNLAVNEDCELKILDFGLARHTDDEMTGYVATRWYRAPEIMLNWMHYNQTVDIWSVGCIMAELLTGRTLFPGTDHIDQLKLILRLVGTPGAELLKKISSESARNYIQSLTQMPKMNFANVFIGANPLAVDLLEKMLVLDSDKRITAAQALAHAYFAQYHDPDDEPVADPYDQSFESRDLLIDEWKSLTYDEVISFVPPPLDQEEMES

Chain of Substance-P receptor (P25103 whole entry): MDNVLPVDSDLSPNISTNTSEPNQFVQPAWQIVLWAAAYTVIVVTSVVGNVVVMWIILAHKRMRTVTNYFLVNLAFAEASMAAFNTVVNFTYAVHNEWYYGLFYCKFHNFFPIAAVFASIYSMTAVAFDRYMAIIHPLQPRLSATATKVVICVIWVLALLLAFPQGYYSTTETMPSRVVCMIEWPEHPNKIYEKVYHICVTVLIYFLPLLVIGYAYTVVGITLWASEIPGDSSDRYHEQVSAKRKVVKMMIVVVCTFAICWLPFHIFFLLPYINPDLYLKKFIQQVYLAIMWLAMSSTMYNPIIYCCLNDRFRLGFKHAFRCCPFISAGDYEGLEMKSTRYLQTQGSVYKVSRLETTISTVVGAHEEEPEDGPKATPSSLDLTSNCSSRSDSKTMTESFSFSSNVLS

Turning to `COc1cc(N)nc2[nH]c(-c3ccc(F)cc3)c(-c3ccncc3)c12`, the IC50 entry (at D(4) dopamine receptor; on Substance-P receptor; in experiment [1]) was “Not Active” throughout. On Adenosine receptor A2a, the pIC50 is 5.99. The pKi at Adenosine receptor A2a was 6.24.
For `CNS(=O)(=O)Cc1ccc2[nH]cc(CCN(C)C)c2c1`, the IC50 result (in experiment [2]; on D(4) dopamine receptor; against Substance-P receptor; at Adenosine receptor A2a; in experiment [1]) was “Not Active” throughout.
`CCCc1nn(C)c2c(=O)[nH]c(-c3cc(S(=O)(=O)N4CCN(C)CC4)ccc3OCC)nc12`: the IC50 result (in experiment [2]; at D(4) dopamine receptor; against Substance-P receptor; in experiment [1]) was “Not Active” in each case. Moreover, the pIC50 at Adenosine receptor A2a is 6.60. Further, the pKi on Adenosine receptor A2a is 6.85.
Regarding `COc1ccc(/C=C/C(=O)Nc2ccccc2C(=O)O)cc1OC`, the IC50 result (in experiment [2]; at D(4) dopamine receptor; at Substance-P receptor; at Adenosine receptor A2a; in experiment [1]) was “Not Active” in each case.
In the case of `CCOC(N)=O`, the IC50 entry (in experiment [2]; at D(4) dopamine receptor; on Substance-P receptor; on Adenosine receptor A2a; in experiment [1]) was “Not Active” throughout.
As for `CC(=O)Nc1nnc(S(N)(=O)=O)s1` [ACETAZOLAMIDE], the IC50 entry (in experiment [2]; on D(4) dopamine receptor; against Substance-P receptor; on Adenosine receptor A2a; in experiment [1]) was “Not Active” throughout.
With `O=c1[nH]c2ccccc2n1CCCN1CCC(n2c(=O)[nH]c3cc(Cl)ccc32)CC1` [DOMPERIDONE], the IC50 result (in experiment [2]; at D(4) dopamine receptor; against Substance-P receptor; on Adenosine receptor A2a; in experiment [1]) was “Not Active” in each case.
As for `CC1=C(CC(=O)O)c2cc(F)ccc2/C1=C\c1ccc(S(C)(=O)=O)cc1` [EXISULIND], the IC50 entry (in experiment [2]; at D(4) dopamine receptor; against Substance-P receptor; at Adenosine receptor A2a; in experiment [1]) was “Not Active” each time.
Consider `CC(C)OC(=O)C(C)(C)Oc1ccc(C(=O)c2ccc(Cl)cc2)cc1` [FENOFIBRATE], for which the IC50 result (in experiment [2]; on D(4) dopamine receptor; against Substance-P receptor; at Adenosine receptor A2a; in experiment [1]) was “Not Active” in each case.
Consider `OCCN1CCN(CCCN2c3ccccc3Sc3ccc(C(F)(F)F)cc32)CC1` [FLUPHENAZINE], for which the IC50 result (in experiment [2]; against Substance-P receptor; on Adenosine receptor A2a; in experiment [1]) was “Not Active” throughout. Further, on D(4) dopamine receptor (read-out: IC50), the pIC50 is 5.23. The negative-log Ki (pKi) on D(4) dopamine receptor (read-out: Ki) was 5.69.
Consider `CN1C2CCCC1CC(NC(=O)c1nn(C)c3ccccc13)C2` (configuration not stated) [GRANISETRON], for which the IC50 result (in experiment [2]; on D(4) dopamine receptor; at Substance-P receptor; at Adenosine receptor A2a; in experiment [1]) was “Not Active” throughout.
Consider `Nc1nc2c(c(=O)[nH]1)N(C=O)C(CNc1ccc(C(=O)N[C@@H](CCC(=O)O)C(=O)O)cc1)CN2` (some centres not stated) [LEUCOVORIN], for which the IC50 entry (in experiment [2]; on D(4) dopamine receptor; against Substance-P receptor; on Adenosine receptor A2a; in experiment [1]) was “Not Active” each time.
As to `C[C@@H](O)[C@H]1C(=O)N2C(C(=O)O)=C(S[C@@H]3CN[C@H](C(=O)N(C)C)C3)[C@H](C)[C@H]12` [MEROPENEM], the IC50 result (in experiment [2]; at D(4) dopamine receptor; at Substance-P receptor; on Adenosine receptor A2a; in experiment [1]) was “Not Active” throughout.
For `CC[C@@H](CO)NC(=O)[C@@H]1C=C2c3cccc4c3c(cn4C)C[C@H]2N(C)C1` [METHYSERGIDE], the IC50 entry (in experiment [2]; at D(4) dopamine receptor; against Substance-P receptor; on Adenosine receptor A2a; in experiment [1]) was “Not Active” in each case.
`CCN(CC)CC#CCOC(=O)C(O)(c1ccccc1)C1CCCCC1` (configuration not stated) [OXYBUTYNIN]: the IC50 entry (in experiment [2]; on D(4) dopamine receptor; at Adenosine receptor A2a; in experiment [1]) was “Not Active” in each case. Moreover, on Substance-P receptor, the Ki entry is “Not Active”.
In the case of `O=P(O)(O)C(O)(Cc1cccnc1)P(=O)(O)O` [RISEDRONIC ACID], the IC50 result (in experiment [2]; on D(4) dopamine receptor; on Substance-P receptor; at Adenosine receptor A2a; in experiment [1]) was “Not Active” in each case.
Turning to `CN(CCOc1ccc(CC2SC(=O)NC2=O)cc1)c1ccccn1` (configuration not stated) [ROSIGLITAZONE], the IC50 entry (in experiment [2]; on D(4) dopamine receptor; at Substance-P receptor; at Adenosine receptor A2a; in experiment [1]) was “Not Active” throughout.
In the case of `C=C(C)[C@H]1Cc2c(ccc3c2O[C@@H]2COc4cc(OC)c(OC)cc4[C@@H]2C3=O)O1` [ROTENONE], the IC50 result (in experiment [2]; at D(4) dopamine receptor; on Substance-P receptor; on Adenosine receptor A2a; in experiment [1]) was “Not Active” each time.
As to `C#CCN(C)[C@H](C)Cc1ccccc1` [SELEGILINE], the IC50 result (in experiment [2]; on D(4) dopamine receptor; against Substance-P receptor; on Adenosine receptor A2a; in experiment [1]) was “Not Active” each time.
Consider `CO[C@H]1C[C@@H]2CC[C@@H](C)[C@@](O)(O2)C(=O)C(=O)N2CCCC[C@H]2C(=O)O[C@H]([C@H](C)C[C@@H]2CC[C@@H](O)[C@H](OC)C2)CC(=O)[C@H](C)/C=C(\C)[C@@H](O)[C@@H](OC)C(=O)[C@H](C)C[C@H](C)/C=C/C=C/C=C/1C` [SIROLIMUS], for which the IC50 result (in experiment [2]; at D(4) dopamine receptor; against Substance-P receptor; on Adenosine receptor A2a; in experiment [1]) was “Not Active” in each case.
For the compound `CN[C@@H]1[C@H](O)[C@H](NC)[C@H]2O[C@@]3(O)C(=O)C[C@@H](C)O[C@H]3O[C@@H]2[C@H]1O` [SPECTINOMYCIN], the IC50 entry (in experiment [2]; at D(4) dopamine receptor; against Substance-P receptor; at Adenosine receptor A2a; in experiment [1]) was “Not Active” each time.
For `Nc1ccc(S(=O)(=O)Nc2ncccn2)cc1` [SULFADIAZINE], the IC50 result (in experiment [2]; at D(4) dopamine receptor; on Substance-P receptor; on Adenosine receptor A2a; in experiment [1]) was “Not Active” in each case.
With `COc1ncnc(NS(=O)(=O)c2ccc(N)cc2)c1OC` [SULFADOXINE], the IC50 result (in experiment [2]; at D(4) dopamine receptor; against Substance-P receptor; on Adenosine receptor A2a; in experiment [1]) was “Not Active” in each case.
For `Nc1ccc(S(=O)(=O)Nc2nccs2)cc1` [SULFATHIAZOLE], the IC50 result (in experiment [2]; on D(4) dopamine receptor; at Substance-P receptor; on Adenosine receptor A2a; in experiment [1]) was “Not Active” in each case.
Take `C[C@]12CC[C@H]3[C@@H](CCC4=CC(=O)CC[C@@]43C)[C@@H]1CC[C@@H]2O` [TESTOSTERONE]: the IC50 result (in experiment [2]; at D(4) dopamine receptor; at Substance-P receptor; at Adenosine receptor A2a; in experiment [1]) was “Not Active” throughout.

(Values after ChEMBL document CHEMBL1909046, “DrugMatrix in vitro pharmacology data”.)
